# From patent publication US20240382482A1, “PLASMA KALLIKREIN INHIBITORS” (TAKEDA PHARMACEUTICAL COMPANY LIMITED, priority 2021, published 2024)
# Structures can show the parent of a compound that is named as a salt.
# Biological target: human activated kallikrein enzyme (Homo sapiens, UniProt P03952)
# Assay: Inhibition of human activated kallikrein enzyme, fluorogenic peptide substrate assay (500 pM enzyme format)
# Type: biochemical
# Conditions: 500 pM activated kallikrein, 300 μM PFR-AMC substrate, 30 min preincubation, 10 min reaction, room temperature; read-out: Primary Dose Response Assay: Average EC50
# Experimental: Compounds were evaluated for inhibition of the human activated kallikrein enzyme in two formats of an assay employing a fluorogenic peptide substrate. In one assay format, the concentrations of reagents were as follows: 20 mM Tris pH 7.5, 1 mM EDTA, 150 mM sodium chloride, 0.1% PEG-400, 0.1% Triton X-100, 500 pM activated kallikrein enzyme, 300 μM Pro-Phe-Arg-7-amido-4-methylcoumarin (PFR-AMC) substrate. Prior to reaction initiation with substrate, enzyme and inhibitors were preincubated for 30 min at room temperature. After initiation with substrate, reactions were incubated for 10 min at room temperature and fluorescence emission at 460 nm from 380 nm excitation measured with a microplate reader. In another assay format, the concentrations of reagents were as follows: 20 mM Tris pH 7.5, 1 mM EDTA, 150 mM sodium chloride, 0.1% PEG-400, 0.1% Triton X-100, 5 pM activated kallikrein enzyme, 300 uM PFR-AMC substrate. Prior to reaction initiation with substrate, enzyme and inhibitors were preincubated for 30 min at room temperature. After initiation with substrate, reactions were incubated for 18 hr at room temperature and fluorescence emission at 460 nm from 380 nm excitation measured with a microplate reader.
# Table 1 provides the results of the assay in the format with 500 pM activated kallikrein assay. For the compounds listed in Table 1, the EC50 values are reported according to the following ranges: A≤5.0 nM; 5.0 nM<B≤50 nM; 50 nM<C≤500 nM; 500 nM<D≤9000 nM; 9000 nM<E.
# human activated kallikrein enzyme, sequence (P03952 391-638 limits assumed): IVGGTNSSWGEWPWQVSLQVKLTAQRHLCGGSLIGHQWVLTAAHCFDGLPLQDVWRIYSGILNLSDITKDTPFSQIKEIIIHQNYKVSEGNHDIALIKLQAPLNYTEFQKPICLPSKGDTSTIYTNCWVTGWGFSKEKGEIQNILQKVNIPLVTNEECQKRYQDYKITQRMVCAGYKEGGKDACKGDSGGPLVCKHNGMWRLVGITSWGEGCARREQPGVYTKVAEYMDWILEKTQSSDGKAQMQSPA
# human activated kallikrein enzyme, sequence (P03952 20-390 partner limits assumed): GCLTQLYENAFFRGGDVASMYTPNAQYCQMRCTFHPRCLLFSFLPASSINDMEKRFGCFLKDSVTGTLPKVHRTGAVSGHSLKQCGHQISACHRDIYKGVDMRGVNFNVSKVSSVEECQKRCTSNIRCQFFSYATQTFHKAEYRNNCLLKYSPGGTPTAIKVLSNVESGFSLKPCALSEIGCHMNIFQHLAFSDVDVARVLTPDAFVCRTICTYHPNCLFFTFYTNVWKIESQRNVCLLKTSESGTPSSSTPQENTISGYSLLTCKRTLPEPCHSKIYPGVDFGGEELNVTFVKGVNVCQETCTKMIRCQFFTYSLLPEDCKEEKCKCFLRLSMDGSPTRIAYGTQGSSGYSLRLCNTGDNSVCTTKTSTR
row,Compound,EC50 [nM]
1,"CC(C)(C(=O)Nc1cc(NCc2cn3cc(C4CC4)ccc3n2)ncn1)c1ncn2ccc(Cl)cc12 [Example 5, 2-(7-chloroimidazo[1,5-a]pyridin-1-yl)-N-(6-(((6-cyclopropylimidazo[1,2-a]pyridin-2-yl)methyl)amino)pyrimidin-4-yl)-2-methylpropanamide]",500 to 9000
2,"COc1ccc(CNc2cc(NCc3cn4cc(C5CC5)ccc4n3)ncn2)c(OC)c1 [Example 136, N^4-((6-cyclopropylimidazo[1,2-a]pyridin-2-yl)methyl)-N^6-(2,4-dimethoxybenzyl)pyrimidine-4,6-diamine]",500 to 9000
3,"O=C(Nc1cc(NCc2cn3cc(C4CC4)ccc3n2)ccn1)c1ccc2ccc(Cl)cc2c1 [Example 118, 7-chloro-N-(4-(((6-cyclopropylimidazo[1,2-a]pyridin-2-yl)methyl)amino)pyridin-2-yl)-2-naphthamide]",50 to 500
4,"O=C(Cc1cc(Cl)ccc1-n1cnnn1)Nc1cc(NCc2cn3cc(C4CC4)ccc3n2)ncn1 [Example 35, 2-(5-chloro-2-(1H-tetrazol-1-yl)phenyl)-N-(6-(((6-cyclopropylimidazo[1,2-a]pyridin-2-yl)methyl)amino)pyrimidin-4-yl)acetamide]",5 to 50
5,"O=C(CNc1cc(Cl)ccc1-n1cnnn1)Nc1cc(NCc2cn3cc(C4CC4)ccc3n2)ccn1 [Example 117, 2-((5-chloro-2-(1H-tetrazol-1-yl)phenyl)amino)-N-(4-(((6-cyclopropylimidazo[1,2-a]pyridin-2-yl)methyl)amino)pyridin-2-yl)acetamide]",5 to 50
6,"N=S(=O)(Nc1cc(NCc2cn3cc(C4CC4)ccc3n2)ncn1)C1CC1c1cccc(Cl)c1 (racemic) [Example 142, (SR,1SR,2RS)-2-(3-chlorophenyl)-N-(6-(((6-cyclopropylimidazo[1,2-a]pyridin-2-yl)methyl)amino)pyrimidin-4-yl)cyclopropane-1-sulfonimidamide]",500 to 9000
7,"O=C(NCc1ncn2ccc(Cl)cc12)c1cnnc(NCc2cn3cc(C4CC4)ccc3n2)c1 [Example 65, N-((7-chloroimidazo[1,5-a]pyridin-1-yl)methyl)-6-(((6-cyclopropylimidazo[1,2-a]pyridin-2-yl)methyl)amino)pyridazine-4-carboxamide]",5 to 50
8,"C[C@H](c1cccc(Cl)c1)[C@@H](C)C(=O)Nc1cc(NCc2cn3cc(C4CC4)ccc3n2)ncn1 [Example 134, (2R,3S)-3-(3-chlorophenyl)-N-(6-(((6-cyclopropylimidazo[1,2-a]pyridin-2-yl)methyl)amino)pyrimidin-4-yl)-2-methylbutanamide]",500 to 9000
9,"O[C@H]1C[C@H](c2cn3cc(C4CC4)ccc3n2)N(c2cc(NCc3cnc4[nH]cc(Cl)c4c3)ncn2)C1 [Example 137, (3S,5R)-1-(6-(((3-chloro-1H-pyrrolo[2,3-b]pyridin-5-yl)methyl)amino)pyrimidin-4-yl)-5-(6-cyclopropylimidazo[1,2-a]pyridin-2-yl)pyrrolidin-3-ol]",50 to 500
10,"O=C(Cc1ncn2ccc(Cl)cc12)Nc1cc(OCc2cn3cc(C4CC4)ccc3n2)cnn1 [Example 32, 2-(7-chloroimidazo[1,5-a]pyridin-1-yl)-N-(5-((6-cyclopropylimidazo[1,2-a]pyridin-2-yl)methoxy)pyridazin-3-yl)acetamide]",≤ 5
11,"O=C(Cc1cc(Cl)ccc1Br)Nc1cc(NCc2cn3cc(C4CC4)ccc3n2)ncn1 [Example 51, 2-(2-bromo-5-chlorophenyl)-N-(6-(((6-cyclopropylimidazo[1,2-a]pyridin-2-yl)methyl)amino)pyrimidin-4-yl)acetamide]",> 9000
12,"C[C@H](C(=O)Nc1cc(NCc2cn3cc(C4CC4)ccc3n2)ncn1)[C@@H](C)c1cccc(Cl)c1 [Example 133, (2S,3R)-3-(3-chlorophenyl)-N-(6-(((6-cyclopropylimidazo[1,2-a]pyridin-2-yl)methyl)amino)pyrimidin-4-yl)-2-methylbutanamide]",> 9000
13,"Cc1cc(N)nc(C)c1CNc1cc(C(O)c2cn3cc(C4CC4)ccc3n2)ncn1 (stereo not drawn) [Example 64, (6-(((6-amino-2,4-dimethylpyridin-3-yl)methyl)amino)pyrimidin-4-yl)(6-cyclopropylimidazo[1,2-a]pyridin-2-yl)methanol bisformic acid salt]",5 to 50
14,"CC(=O)OCONC(=N)c1cc(C)c(CNc2cc(OCc3cn4cc(C5CC5)ccc4n3)ncn2)c(C)c1 [Example 90, ((4-(((6-((6-cyclopropylimidazo[1,2-a]pyridin-2-yl)methoxy)pyrimidin-4-yl)amino)methyl)-3,5-dimethylbenzimidamido)oxy)methyl acetate]",500 to 9000
15,"COc1ccc(C#N)c(CC(=O)Nc2cc(NCc3cn4cc(C5CC5)ccc4n3)ncn2)c1F [Example 3, 2-(6-cyano-2-fluoro-3-methoxyphenyl)-N-(6-(((6-cyclopropylimidazo[1,2-a]pyridin-2-yl)methyl)amino)pyrimidin-4-yl)acetamide]",500 to 9000
16,"O=C(Cc1ncn2ccc(Cl)cc12)Nc1cc(NCc2cn3cc(C4CC4)ccc3n2)nc(C(F)(F)F)n1 [Example 101, 2-(7-chloroimidazo[1,5-a]pyridin-1-yl)-N-(6-(((6-cyclopropylimidazo[1,2-a]pyridin-2-yl)methyl)amino)-2-(trifluoromethyl)pyrimidin-4-yl)acetamide]",5 to 50
17,"O=C(Cc1ncn2ccc(Cl)cc12)Nc1cc(NCc2cn3cc(C4CC4)cc(CN4CCOCC4)c3n2)ncn1 [Example 48, 2-(7-chloroimidazo[1,5-a]pyridin-1-yl)-N-(6-(((6-cyclopropyl-8-(morpholinomethyl)imidazo[1,2-a]pyridin-2-yl)methyl)amino)pyrimidin-4-yl)acetamide]",≤ 5
18,"O=C(Cc1ncn2ccc(Br)c(F)c12)Nc1cc(NCc2cn3cc(C4CC4)ccc3n2)ncn1 [Example 53, 2-(7-bromo-8-fluoroimidazo[1,5-a]pyridin-1-yl)-N-(6-(((6-cyclopropylimidazo[1,2-a]pyridin-2-yl)methyl)amino)pyrimidin-4-yl)acetamide]",≤ 5
19,"Cc1cc(C(=N)N)cc(C)c1CNc1cc(OCc2cn3cc(C4CC4)ccc3n2)nc(-c2nn[nH]n2)n1 [Example 91, 4-(((6-((6-cyclopropylimidazo[1,2-a]pyridin-2-yl)methoxy)-2-(2H-tetrazol-5-yl)pyrimidin-4-yl)amino)methyl)-3,5-dimethylbenzimidamide]",≤ 5
20,"CCCCCCOC(=O)NC(=N)c1cc(C)c(CNc2cc(OCc3cn4cc(C5CC5)ccc4n3)nc(CCC(=O)OCC)n2)c(C)c1 [Example 75, ethyl 3-(4-((6-cyclopropylimidazo[1,2-a]pyridin-2-yl)methoxy)-6-((4-(N-((hexyloxy)carbonyl)carbamimidoyl)-2,6-dimethylbenzyl)amino)pyrimidin-2-yl)propanoate]",50 to 500
21,"CCOC(=O)CCc1nc(NCc2c(C)cc(C(=N)NC(=O)OCC)cc2C)cc(OCc2cn3cc(C4CC4)ccc3n2)n1 [Example 77, ethyl 3-(4-((6-cyclopropylimidazo[1,2-a]pyridin-2-yl)methoxy)-6-((4-(N-(ethoxycarbonyl)carbamimidoyl)-2,6-dimethylbenzyl)amino)pyrimidin-2-yl)propanoate]",5 to 50
22,"O=C(Cc1ncn2ccc(Cl)cc12)Nc1cc(NCc2cn3cc(C4CC4)cc(CO)c3n2)ncn1 [Example 44, 2-(7-chloroimidazo[1,5-a]pyridin-1-yl)-N-(6-(((6-cyclopropyl-8-(hydroxymethyl)imidazo[1,2-a]pyridin-2-yl)methyl)amino)pyrimidin-4-yl)acetamide]",≤ 5
23,"Cc1cc(C(=N)N)cc(C)c1CNc1cc(OCc2cn3cc(C4CC4)ccc3n2)nc(CCC(=O)O)n1 [Example 74, 3-(4-((4-carbamimidoyl-2,6-dimethylbenzyl)amino)-6-((6-cyclopropylimidazo[1,2-a]pyridin-2-yl)methoxy)pyrimidin-2-yl)propanoic acid formic acid salt]",≤ 5
24,"COc1ccc(-n2cnnn2)c(CNc2cc(C(O)c3cn4cc(C5CC5)ccc4n3)ncn2)c1F (stereo not drawn) [Example 63, (6-cyclopropylimidazo[1,2-a]pyridin-2-yl)(6-((2-fluoro-3-methoxy-6-(H-tetrazol-1-yl)benzyl)amino)pyrimidin-4-yl)methanol]",5 to 50
25,"O=C(Cn1nnc2ccc(Cl)cc21)Nc1cc(NCc2cn3cc(C4CC4)ccc3n2)ccn1 [Example 27, 2-(6-chloro-1H-benzo[d][1,2,3]triazol-1-yl)-N-(4-(((6-cyclopropylimidazo[1,2-a]pyridin-2-yl)methyl)amino)pyridin-2-yl)acetamide]",500 to 9000
26,"O=C(Nc1cc(NCc2cn3cc(C4CC4)ccc3n2)ncn1)C(=O)c1ncn2ccc(Cl)cc12 [Example 54, 2-(7-chloroimidazo[1,5-a]pyridin-1-yl)-N-(6-(((6-cyclopropylimidazo[1,2-a]pyridin-2-yl)methy)amino)pyrimidin-4-yl)-2-oxoacetamide]",≤ 5
27,"O=C(Cc1ncn2ccc(Cl)cc12)Nc1cnnc(OCc2cn3cc(C4CC4)ccc3n2)c1 [Example 34, 2-(7-chloroimidazo[1,5-a]pyridin-1-yl)-N-(6-((6-cyclopropylimidazo[1,2-a]pyridin-2-yl)methoxy)pyridazin-4-yl)acetamide]",50 to 500
